# Where two headings read alike, the source gives them in different places.
# Key:
# Chimera 1 = Chimera 1 (Homo sapiens, UniProt P36544, M226I/T225V); assay: [3H]A-585539 radioligand binding, HEK-293 membranes; design: expressed in transfected cells; details: membranes of HEK-293 cells expressing Chimera 1; read-out: Radioligand Binding KD ± SEM
# Chimera 2 = Chimera 2 (Homo sapiens, UniProt P36544, M226I/T225V); assay: [3H]A-585539 radioligand binding, HEK-293 membranes/homogenates; design: expressed in transfected cells
# Chimera 2, sequence (P36544 with tags, fused parts or gaps T225V/M226I): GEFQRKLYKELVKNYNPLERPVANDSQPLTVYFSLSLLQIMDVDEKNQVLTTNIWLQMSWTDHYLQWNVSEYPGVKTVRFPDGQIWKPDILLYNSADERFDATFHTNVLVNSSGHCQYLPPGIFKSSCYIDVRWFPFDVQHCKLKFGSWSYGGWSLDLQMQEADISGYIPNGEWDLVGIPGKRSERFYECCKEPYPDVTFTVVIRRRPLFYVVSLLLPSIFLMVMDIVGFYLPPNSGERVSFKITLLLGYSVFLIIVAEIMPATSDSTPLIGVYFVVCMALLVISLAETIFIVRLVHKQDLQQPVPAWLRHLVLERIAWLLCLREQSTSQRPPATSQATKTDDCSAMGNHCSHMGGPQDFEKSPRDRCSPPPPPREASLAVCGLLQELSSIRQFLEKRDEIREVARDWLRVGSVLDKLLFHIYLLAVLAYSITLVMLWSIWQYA
# Chimera 1, sequence (P36544 with tags, fused parts or gaps T225V/M226I): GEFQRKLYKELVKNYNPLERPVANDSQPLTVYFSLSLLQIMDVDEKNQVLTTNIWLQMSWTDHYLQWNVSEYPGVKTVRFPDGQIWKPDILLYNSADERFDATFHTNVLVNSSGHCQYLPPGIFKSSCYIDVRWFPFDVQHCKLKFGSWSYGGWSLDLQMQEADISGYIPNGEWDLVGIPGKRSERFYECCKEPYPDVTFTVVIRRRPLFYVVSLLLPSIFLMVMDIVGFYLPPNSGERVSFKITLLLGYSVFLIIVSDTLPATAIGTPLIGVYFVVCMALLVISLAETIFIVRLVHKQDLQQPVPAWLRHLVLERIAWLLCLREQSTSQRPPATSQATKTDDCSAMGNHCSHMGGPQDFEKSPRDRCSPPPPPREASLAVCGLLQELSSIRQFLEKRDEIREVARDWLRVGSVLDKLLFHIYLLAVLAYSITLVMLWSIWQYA
structure (smiles),measurement,setting,value
"C[N+]1(C)C[C@@H]2C[C@H]1CN2c1ccc(-c2ccccc2)nn1.[I-] [[^3H]A585539, [^3H]-(S,S)-2,2-dimethyl-5-(6-phenyl-pyridazin-3-yl)-5-aza-2-azonia-bicyclo[2.2.1]heptane iodide]",Kd,Chimera 1,0.65 nM
same,"Bmax, saturation binding","Chimera 2; 10 μM genistein, 4 μg/well",6058.0±809.3 fmol/mg protein
same,Kd,"Chimera 2; 10 μM genistein, 4 μg/well, read-out: Kd, saturation binding",0.1 ± 0.01 nM
same,"Bmax, saturation binding","Chimera 2; 10 μM genistein, 20 μg/well",7251.0±587.8 fmol/mg protein
same,Kd,"Chimera 2; 10 μM genistein, 20 μg/well, read-out: Kd, saturation binding",0.18 ± 0.01 nM
same,"Bmax, representative saturation binding",Chimera 2; absence of genistein,6014 fmol/mg protein
same,Kd,"Chimera 2; absence of genistein, read-out: Kd, representative saturation binding",0.15 nM
same,Bmax,Chimera 2; homogenates of HEK-293-Chimera 2 cells,29167 fmol/mg protein
same,Kd,"Chimera 2; membranes of HEK-293 cells expressing Chimera 2, read-out: Radioligand Binding KD ± SEM",0.17 nM
same,"Bmax, representative saturation binding",Chimera 2; presence of 10 μM genistein,6528 fmol/mg protein
same,Kd,"Chimera 2; presence of 10 μM genistein, read-out: Kd, representative saturation binding",0.17 nM
same,"Bmax, saturation binding","Chimera 2; without genistein, 4 μg/well",5979.0±530.3 fmol/mg protein
same,Kd,"Chimera 2; without genistein, 4 μg/well, read-out: Kd, saturation binding",0.11 ± 0.01 nM
same,"Bmax, saturation binding","Chimera 2; without genistein, 20 μg/well",7016.0±798.2 fmol/mg protein
same,Kd,"Chimera 2; without genistein, 20 μg/well, read-out: Kd, saturation binding",0.17 ± 0.02 nM
